{"source": "patent US12613179B2", "about": "“Label-free electrical monitoring of cell aggregates” (NANYANG TECHNOLOGICAL UNIVERSITY, priority 2020, dated 2026)", "system": "cell aggregates modelling cancer tumoroids", "test": "drug susceptibility testing of cell aggregates by EIS-based electrical signatures and optical microscopy", "procedure": "In another set of experiments, the method of the present disclosure is shown to be useful in the continuous monitoring of the physiological and/or morphological changes of cell aggregates in drug susceptibility testing. Paclitaxel (PTX), a common anti-cancer drug for several types of cancers, was provided at different concentrations ranging from 0 nM (nanoMole) to 500 nM to cultures of cell aggregates modelling cancer tumoroids and observed over a period of 24 hours. […] Based on optical microscopy, it can be appreciated that there are hardly any distinguishable differences between the cell aggregate image at 100 nM of PTX and the cell aggregate images at 200 nM PTX or 500 nM PTX. […] Conventionally, it would have required testing the extracellular environment for metabolites to determine such a change. In contrast, by considering the two EIS-based electrical signatures of electrical size and opacity, more information on the effect of drug treatment can be determined. […] The two EIS-based electrical signatures together are able to indicate that the physiological state of the cells undergo substantive changes only after the drug concentration is raised to 500 nM. This is consistent with what is known of the drug treatment modelled in these experiments, and validates the usefulness of the EIS-based electrical signatures in monitoring physiological and/or morphological changes in 3D cell aggregates."}
{"smiles": "CC(=O)O[C@H]1C(=O)[C@@]2(C)[C@H]([C@H](OC(=O)c3ccccc3)[C@]3(O)C[C@H](OC(=O)[C@H](O)[C@@H](NC(=O)c4ccccc4)c4ccccc4)C(C)=C1C3(C)C)[C@]1(OC(C)=O)CO[C@@H]1C[C@@H]2O", "note": "[Paclitaxel]", "values": [{"measurement": "optical size of the cell aggregate (optical microscopy)", "setting": "100 nM PTX, 24 hours, FIG. 17A", "value": "started to decrease"}, {"measurement": "electrical size of the cell aggregates", "setting": "500 nM PTX, observed over 24 hours, FIG. 17B, 0 nM control 300±41.8 μm", "value": "281±40.3", "unit": "μm"}, {"measurement": "opacity of the cell aggregates", "setting": "drug concentration increased from 0 nM to 500 nM, 24 hours, FIG. 17C", "value": "remains relatively unchanged"}]}
